Source: patent US20240115654A1, “INTRAVENOUS ADMINISTRATION OF ENGINEERED ANTIMICROBIAL AMPHIPHILIC PEPTIDES” (priority 2021, published 2024)
Read-outs that look alike come from different tables or passages of the source. Peptide text beside a SMILES is read from it.

Excerpt: All subjects who met eligibility criteria were confined to the clinical research unit from […] through Day 3. At admission, physical examination, vital signs, 12 lead ECG and weight were obtained, medical and medication history were updated if necessary, safety blood tests (hematology and chemistry), urinalysis, urine drug screen and an alcohol breath test were repeated and a urine pregnancy test was done for women of childbearing potential.
At each dose level, there were 2 sentinel subjects, (1 active, 1 placebo), who were dosed at least 48 hours in advance of the other subjects in their respective group. Following review of safety data, including physical examination, vital signs, and review of adverse events from the first 2 subjects, enrolment in the cohort continued.
A 12-lead ECG was performed on Day 1, within 60 minutes of infusion start (in triplicate), mid-way through the infusion, at the completion of the infusion, 30 minutes after completion of the infusion and at various timepoints following the end of the infusion.
Vital signs were recorded within 60 minutes pre-dose, at the mid-point of the infusion and post dose vitals were assessed at completion of the infusion, 0.5, 1, 2, 3, 4, 6, 9, 12, 24 and 48 hours post dose, after at least 3 minutes of rest in supine position.
Subjects returned to the study center 7 days after dosing, for the termination visit. A full physical examination, vital signs and weight were obtained, concomitant medications were updated if necessary, safety blood specimens (haematology and chemistry, PT and aPTT) and urine were collected for urinalysis and urine drug screening. A serum pregnancy test was done for women of childbearing potential and a 12-lead ECG was performed.
In this study dose limiting toxicity (DLT) was defined as any drug related ≥Grade 3 AEs occurring despite optimal therapeutic interventions (which included but were not limited to allergic/hypersensitivity reactions, dermatological reactions/infusion site reactions, haematological toxicities such as neutropenia, thrombocytopenia and anaemia and clinical chemistry abnormalities) experienced up to Day 7 (Termination Visit).
(§1) All subjects who received any amount of study drug were included in the safety analysis (Safety population).
The study was a double blinded, randomized, placebo-controlled study. The placebo administered was 0.9% sodium chloride.
On Day 1 (day of dosing), subjects were randomly assigned either peptide IV or Placebo IV. At each dose level, there were 2 sentinel subjects, (1 active, 1 placebo), who were dosed at least 48 hours in advance of the other subjects in their respective group. Following review of safety data, including physical examination, vital signs, and review of adverse events from the first 2 subjects, enrolment in the cohort continued. All subjects who met eligibility criteria were confined to the clinical research unit from Day −2 through Day 3. At admission, physical examination, vital signs, 12 lead ECG and weight were obtained, medical and medication history were updated if necessary, safety blood tests (hematology and chemistry), urinalysis, urine drug screen and an alcohol breath test were repeated and a urine pregnancy test was done for women of childbearing potential.
as §1

[1] = Cohort 1: 0.05 mg/kg IV 1-hr infusion (N = 6)
[2] = Cohort 1: 0.05 mg/kg IV 1 hour infusion, subject 001-S008
[3] = Cohort 4 0.05 mg/kg IV 2-hr infusion, participant 001-S086
[4] = Cohort 4: 0.5 mg/kg IV 2-hr infusion (N = 6)

CC(C)[C@H](NC(=O)[C@H](Cc1c[nH]c2ccccc12)NC(=O)[C@H](CCCNC(=N)N)NC(=O)[C@H](CCCNC(=N)N)NC(=O)[C@@H](NC(=O)[C@@H](NC(=O)[C@H](CCCNC(=N)N)NC(=O)[C@@H](NC(=O)[C@@H](NC(=O)[C@H](CCCNC(=N)N)NC(=O)[C@H](CCCNC(=N)N)NC(=O)[C@H](Cc1c[nH]c2ccccc12)NC(=O)[C@@H](NC(=O)[C@H](CCCNC(=N)N)NC(=O)[C@H](CCCNC(=N)N)NC(=O)[C@@H](NC(=O)[C@H](CCCNC(=N)N)NC(=O)[C@H](CCCNC(=N)N)NC(=O)[C@@H](NC(=O)[C@H](Cc1c[nH]c2ccccc12)NC(=O)[C@H](CCCNC(=N)N)NC(=O)[C@@H](N)CCCNC(=N)N)C(C)C)C(C)C)C(C)C)C(C)C)C(C)C)C(C)C)C(C)C)C(=O)N[C@@H](CCCNC(=N)N)C(=O)N[C@@H](CCCNC(=N)N)C(N)=O [SEQ ID NO: 1] (H-RRWVRRVRRVWRRVVRVVRRWVRR-NH2)
Grade 1: Infusion related reaction: Severity Grade [2] | Severity of event: Localized IRR at right arm and shoulder ache [3] | Severity of event: Myalgia [3]
3 (50.0%): Number of Participants Reporting at least: One Related TEAE, n (%) [4] | Participants With At Least 1 Treatment-Related TEAE, n (%) [4] | TEAE by system organ class: Injury, Poisoning, and Procedural Complications, participants n (%) [4]
Day 1/6 hours: Infusion related reaction: End Date/Time [2]
3: TEAE by system organ class: Injury, Poisoning, and Procedural Complications, occurrences m [1] | participants with IRRs (Cohort 4, 0.5 mg/kg over 2 hours in 250 mL) | TEAE Severity Grade 2, m [4] | TEAE by system organ class: Skin and Subcutaneous Tissue Disorders, occurrences m [4] | TEAE severity Grade 2, occurrences m [4]
2: TEAE by system organ class: Nervous System Disorders, occurrences m [1] | TEAE by system organ class: Gastrointestinal Disorders, occurrences m [4] | TEAE by system organ class: General Disorders and Administration Site Conditions, occurrences m [4] | TEAE by system organ class: Musculoskeletal and Connective Tissue Disorders, occurrences m [4] | Treatment-related TEAE: Gastrointestinal Disorders, occurrences m [4] | Treatment-related TEAE: General Disorders and Administration Site Conditions, occurrences m [4]
6 (100%): Number of Participants Reporting at least: One TEAE, n (%) [4] | Participants With At Least 1 TEAE, n (%) [4] | TEAE Severity Grade 1, n (%) [4] | TEAE severity Grade 1, participants n (%) [4]
1: Participants With At Least 1 Treatment-Related TEAE, occurrences m [1] | TEAE by system organ class: Gastrointestinal Disorders, occurrences m [1] | TEAE by system organ class: General Disorders and Administration Site Conditions, occurrences m [1] | Treatment-related TEAE: General Disorders and Administration Site Conditions, occurrences m [1] | Treatment-related TEAE: Vessel puncture site erythema, occurrences m [1] | TEAE by system organ class: Infections and Infestations, occurrences m [4] | TEAE by system organ class: Nervous System Disorders, occurrences m [4] | Treatment-related TEAE: Abdominal distension, occurrences m [4] | Treatment-related TEAE: Diarrhea, occurrences m [4] | Treatment-related TEAE: Infusion site reaction, occurrences m [4]
7: Participants With At Least 1 TEAE, occurrences m [1] | TEAE Severity Grade 1, m [1] | TEAE severity Grade 1, occurrences m [1]
2 (33.3%): TEAE by system organ class: Nervous System Disorders, participants n (%) [1] | TEAE Severity Grade 2, n (%) [4] | TEAE by system organ class: General Disorders and Administration Site Conditions, participants n (%) [4] | TEAE by system organ class: Musculoskeletal and Connective Tissue Disorders, participants n (%) [4] | TEAE by system organ class: Skin and Subcutaneous Tissue Disorders, participants n (%) [4] | TEAE severity Grade 2, participants n (%) [4] | Treatment-related TEAE: General Disorders and Administration Site Conditions, participants n (%) [4]
12: TEAE Severity Grade 1, m [4] | TEAE severity Grade 1, occurrences m [4]
1 (16.7%): Participants With At Least 1 Treatment-Related TEAE, n (%) [1] | TEAE by system organ class: Gastrointestinal Disorders, participants n (%) [1] | TEAE by system organ class: General Disorders and Administration Site Conditions, participants n (%) [1] | Treatment-related TEAE: General Disorders and Administration Site Conditions, participants n (%) [1] | Treatment-related TEAE: Vessel puncture site erythema, participants n (%) [1] | TEAE by system organ class: Gastrointestinal Disorders, participants n (%) [4] | TEAE by system organ class: Infections and Infestations, participants n (%) [4] | TEAE by system organ class: Nervous System Disorders, participants n (%) [4] | Treatment-related TEAE: Abdominal distension, participants n (%) [4] | Treatment-related TEAE: Diarrhea, participants n (%) [4] | Treatment-related TEAE: Gastrointestinal Disorders, participants n (%) [4] | Treatment-related TEAE: Infusion site reaction, participants n (%) [4]
15: One TEAE, m [4] | Participants With At Least 1 TEAE, occurrences m [4]
5 (83.3%): TEAE Severity Grade 1, n (%) [1] | TEAE severity Grade 1, participants n (%) [1]
4: IRRs, events (Cohort 4, 0.5 mg/kg over 2 hours in 250 mL, all Grade 1, no study drug interruption) | One Related TEAE, m [4] | Participants With At Least 1 Treatment-Related TEAE, occurrences m [4] | TEAE by system organ class: Injury, Poisoning, and Procedural Complications, occurrences m [4]
0: TEAE Severity Grade 2, n (%) [1] | TEAE by system organ class: Blood and Lymphatic System Disorders, participants n (%) [1] | TEAE by system organ class: Infections and Infestations, participants n (%) [1] | TEAE by system organ class: Musculoskeletal and Connective Tissue Disorders, participants n (%) [1] | TEAE by system organ class: Respiratory, Thoracic, and Mediastinal disorders, participants n (%) [1] | TEAE by system organ class: Skin and Subcutaneous Tissue Disorders, participants n (%) [1] | TEAE by system organ class: Vascular Disorders, participants n (%) [1] | TEAE severity Grade 2, participants n (%) [1] | TEAE severity Grade 3, participants n (%) [1] | TEAE severity Grade 4, participants n (%) [1] | TEAE severity Grade 5, participants n (%) [1] | Treatment-related TEAE: Abdominal distension, participants n (%) [1] | Treatment-related TEAE: Blood and Lymphatic System Disorders, participants n (%) [1] | Treatment-related TEAE: Constipation, participants n (%) [1] | Treatment-related TEAE: Diarrhea, participants n (%) [1] | Treatment-related TEAE: Dizziness, participants n (%) [1] | Treatment-related TEAE: Feeling hot, participants n (%) [1] | Treatment-related TEAE: Gastrointestinal Disorders, participants n (%) [1] | Treatment-related TEAE: Headache, participants n (%) [1] | Treatment-related TEAE: Infusion related reaction, participants n (%) [1] | Treatment-related TEAE: Infusion site discomfort, participants n (%) [1] | Treatment-related TEAE: Infusion site pain, participants n (%) [1] | Treatment-related TEAE: Infusion site reaction, participants n (%) [1] | Treatment-related TEAE: Infusion site swelling, participants n (%) [1] | Treatment-related TEAE: Injury, Poisoning, and Procedural Complications, participants n (%) [1] | Treatment-related TEAE: Macule, participants n (%) [1] | Treatment-related TEAE: Musculoskeletal and Connective Tissue Disorders, participants n (%) [1] | Treatment-related TEAE: Myalgia, participants n (%) [1] | Treatment-related TEAE: Nervous system disorders, participants n (%) [1] | Treatment-related TEAE: Oropharyngeal pain, participants n (%) [1] | Treatment-related TEAE: Orthostatic hypotension, participants n (%) [1] | Treatment-related TEAE: Phlebitis, participants n (%) [1] | Treatment-related TEAE: Respiratory, Thoracic, and Mediastinal disorders, participants n (%) [1] | Treatment-related TEAE: Skin and Subcutaneous Tissue Disorders, participants n (%) [1] | Treatment-related TEAE: Thrombocytopenia, participants n (%) [1] | Treatment-related TEAE: Vascular Disorders, participants n (%) [1] | Treatment-related TEAE: Vessel puncture site pain, participants n (%) [1] | Treatment-related TEAE: Vomiting, participants n (%) [1] | Number of Participants Reporting at least: One Dose-Limiting Toxicity, n (%) (Cohort 2: […] IV 1-hr infusion (N = 6)) | Number of Participants Reporting at least: One Dose-Limiting Toxicity, n (%) (Cohort 3: […] IV 1-hr infusion (N = 5)) | Number of Participants Reporting at least: One Dose-Limiting Toxicity, n (%) (Cohort 3b: […] IV 2-hr infusion (N = 6)) | Number of Participants Reporting at least: Onc TEAE Leading to Study Withdrawal, n (%) [4] | Number of Participants Reporting at least: One Dose-Limiting Toxicity, n (%) [4] | Number of Participants Reporting at least: One Serious TEAE, n (%) [4] | Number of Participants Reporting at least: One TEAE Leading to Study Drug Discontinuation, n (%) [4] | Number of Participants Reporting at least: One TEAE with Common Terminology Criteria for Adverse Events (CTCAE) Toxicity ≥ Grade 3, n (%) [4] | TEAE by system organ class: Blood and Lymphatic System Disorders, participants n (%) [4] | TEAE by system organ class: Respiratory, Thoracic, and Mediastinal disorders, participants n (%) [4] | TEAE by system organ class: Vascular Disorders, participants n (%) [4] | TEAE severity Grade 3, participants n (%) [4] | TEAE severity Grade 4, participants n (%) [4] | TEAE severity Grade 5, participants n (%) [4] | Treatment-related TEAE: Blood and Lymphatic System Disorders, participants n (%) [4] | Treatment-related TEAE: Constipation, participants n (%) [4] | Treatment-related TEAE: Dizziness, participants n (%) [4] | Treatment-related TEAE: Feeling hot, participants n (%) [4] | Treatment-related TEAE: Headache, participants n (%) [4] | Treatment-related TEAE: Infusion related reaction, participants n (%) [4] | Treatment-related TEAE: Infusion site discomfort, participants n (%) [4] | Treatment-related TEAE: Infusion site pain, participants n (%) [4] | Treatment-related TEAE: Infusion site swelling, participants n (%) [4] | Treatment-related TEAE: Injury, Poisoning, and Procedural Complications, participants n (%) [4] | Treatment-related TEAE: Macule, participants n (%) [4] | Treatment-related TEAE: Musculoskeletal and Connective Tissue Disorders, participants n (%) [4] | Treatment-related TEAE: Myalgia, participants n (%) [4] | Treatment-related TEAE: Nervous system disorders, participants n (%) [4] | Treatment-related TEAE: Oropharyngeal pain, participants n (%) [4] | Treatment-related TEAE: Orthostatic hypotension, participants n (%) [4] | Treatment-related TEAE: Phlebitis, participants n (%) [4] | Treatment-related TEAE: Respiratory, Thoracic, and Mediastinal disorders, participants n (%) [4]
3 (30.0%): TEAE by system organ class: Injury, Poisoning, and Procedural Complications, participants n (%) [1]
